Earlier results as cited in US20230404964A1, “COMBINATION FOR REDUCING OXIDATIVE STRESS IN THE BODY AND MAINTAINING LIVER FUNCTIONS” (priority 2020, published 2023).
Several values for one entry are separate records, joined by “and”; a condition that tells them apart may be missing. Equal entries are not always repeated.

Tested on: HUVEC cells
Conditions: pretreatment with DHM 37.5-300 μmol, hydrogen peroxide

O=C1c2c(O)cc(O)cc2O[C@H](c2cc(O)c(O)c(O)c2)[C@H]1O [DHM, Dihydromyricetin]
decrease in apoptosis (depending on the dose): 14.83% and 11.1% and 9.12%
MDA concentration (in words): decrease in the MDA concentration
production of reactive oxygen species (in words): significant decrease in the production of reactive oxygen species
